Measured values from DBAASP.
Values after ≈ are worked out from the molar mass of the structure shown. Values joined by “and” are separate entries in the source; they are usually repeats but may differ in a detail not shown here. Equal values may be shown once. Values belong to the molecule of their own block, whether it stands above or below them.

What was measured:
Experiment in all cases: ≥ marks a high value that may be exact or a test limit, other limits are often not marked, values filed in µg/mL are converted to µM
[1] = system: Acinetobacter baumannii ATCC 19606
[2] = system: Pseudomonas aeruginosa 73
[3] = system: Escherichia coli 780
[4] = system: Staphylococcus aureus 113
[5] = system: Klebsiella pneumoniae ATCC 700603
[6] = system: Pseudomonas aeruginosa ATCC 27853
[7] = system: Pseudomonas aeruginosa 50
[8] = system: Staphylococcus aureus ATCC 29213
[9] = system: Acinetobacter baumannii 97830
[10] = system: Escherichia coli 804
[11] = system: Staphylococcus epidermidis ATCC 12228
[12] = system: Acinetobacter baumannii 9931
[13] = system: Bacillus subtilis ATCC 23857
[14] = system: Staphylococcus aureus 75
[15] = system: Pseudomonas aeruginosa ATCC 9027
[16] = system: Cryptococcus neoformans ATCC 52817
[17] = system: Candida albicans
[18] = system: Serratia marcescens ATCC 8100
[19] = system: Salmonella enterica serovar Typhimurium
[20] = system: Candida tropicalis
[21] = system: Escherichia coli ML-35
[22] = system: Escherichia coli ATCC 25922
[23] = system: Escherichia coli
[24] = system: Klebsiella pneumoniae
[25] = system: Staphylococcus aureus ATCC 25923
[26] = system: Klebsiella pneumoniae ATCC 13883
[27] = system: Salmonella enterica subsp. enterica serovar Enteritidis
[28] = system: Streptococcus equinus
[29] = system: Pseudomonas aeruginosa ATCC 10145
[30] = system: Salmonella enterica subsp. enterica serovar Typhimurium ATCC 14028
[31] = system: Candida parapsilosis
[32] = system: Cryptococcus neoformans ATCC 90113
[33] = system: Bacillus megaterium Bm11
[34] = system: Cryptococcus neoformans
[35] = system: Pseudomonas aeruginosa
[36] = system: Pseudomonas aeruginosa H374
[37] = system: Pseudomonas aeruginosa Z61
[38] = system: Pseudomonas aeruginosa H744
[39] = system: Burkholderia cepacia ATCC 25416
[40] = system: Salmonella enterica subsp. enterica serovar Typhimurium ATCC 14028s
[41] = system: Pseudomonas aeruginosa K799
[42] = system: Pseudomonas aeruginosa H547
[43] = system: Escherichia coli UB1005
[44] = system: Escherichia coli DH5alpha
[45] = system: Zymomonas mobilis ATCC 10988
[46] = system: Escherichia coli BW25113 ΔsbmA
[47] = system: Escherichia coli BW25113

MIC [6]: 4 µM (≈ 11.7 µg/mL) | MIC [36]: 2.73 µM (≈ 8 µg/mL) | MIC [37]: 1.02 µM (≈ 3 µg/mL) | MIC [38]: 1.36 µM (≈ 4 µg/mL) | MIC [39]: 21.8 µM (≈ 64 µg/mL) | MIC [40]: 1.02 µM (≈ 3 µg/mL) | MIC [41]: 1.71 µM (≈ 5 µg/mL) | MIC [42]: 2.73 µM (≈ 8 µg/mL) | MIC [43]: 0.682 µM (≈ 2 µg/mL)
Compound: CC[C@H](C)[C@H](NC(=O)[C@H](CC(C)C)NC(=O)[C@@H]1CCCN1C(=O)[C@H](CCCCN)NC(=O)[C@H](C)NC(=O)[C@@H](NC(=O)[C@@H](NC(=O)[C@@H](NC(=O)[C@@H](NC(=O)[C@H](CCCCN)NC(=O)[C@H](CCCCN)NC(=O)[C@H](CC(C)C)NC(=O)[C@@H](NC(=O)[C@H](CO)NC(=O)[C@@H](NC(=O)[C@H](CC(C)C)NC(=O)[C@H](CCCCN)NC(=O)[C@H](CCCCN)NC(=O)[C@@H](NC(=O)[C@H](Cc1ccccc1)NC(=O)[C@H](CO)NC(=O)[C@H](CCCCN)NC(=O)[C@H](Cc1c[nH]c2ccccc12)NC(=O)[C@@H](N)CCCCN)[C@@H](C)CC)[C@@H](C)O)C(C)C)C(C)C)C(C)C)[C@@H](C)O)[C@@H](C)O)C(=O)N[C@@H](CO)C(=O)N[C@@H](CO)C(=O)O [KWKSFIKKLTSVLKKVVTTAKPLISS]

MIC [44]: ≥ 119 µM | MIC [45]: ≥ 119 µM
Compound: CC[C@H](C)[C@H](NC(=O)[C@H](CCCN=C(N)N)NC(=O)[C@H](CCC(N)=O)NC(=O)[C@@H](NC(=O)[C@@H](NC(=O)[C@H](CCCN=C(N)N)NC(=O)[C@H](CCCCN)NC(=O)[C@@H](N)CC(C)C)[C@@H](C)CC)C(C)C)C(=O)N[C@@H](CCCCN)C(=O)N[C@@H](CC(=O)O)C(=O)N[C@@H](Cc1ccccc1)C(=O)N[C@@H](CC(C)C)C(=O)N[C@@H](CCCN=C(N)N)C(N)=O [LKRIVQRIKDFLR]

MIC [1]: 32 µM (≈ 67.4 µg/mL) | MIC [5]: 16 µM (≈ 33.7 µg/mL) | MIC [46]: 12 µM (≈ 25.3 µg/mL) | MIC [6]: > 64 µM | MIC [47]: 1 µM (≈ 2.11 µg/mL) | MIC [22]: 1 µM (≈ 2.11 µg/mL) | MIC [25]: > 64 µM
Compound: CC[C@H](C)[C@H](NC(=O)[C@H](CCCN=C(N)N)NC(=O)[C@@H](N)Cc1c[nH]c2ccccc12)C(=O)N[C@@H](CCCN=C(N)N)C(=O)N1CCC[C@H]1C(=O)N[C@@H](CCCN=C(N)N)C(=O)N1CCC[C@H]1C(=O)N1CCC[C@H]1C(=O)N[C@@H](CCCN=C(N)N)C(=O)N[C@@H](CC(C)C)C(=O)N1CCC[C@H]1C(=O)N[C@@H](CCCN=C(N)N)C(=O)N1CCC[C@H]1C(=O)N[C@@H](CCCN=C(N)N)C(=O)N1CCC[C@H]1C(=O)N[C@@H](CCCN=C(N)N)C(=O)O [WRIRPRPPRLPRPRPR]

The remaining lines, values behind:

Compound: C[C@H](N)C(=O)N[C@@H](CCCN=C(N)N)C(=O)N[C@@H](CCCN=C(N)N)C(=O)N[C@@H](Cc1c[nH]c2ccccc12)C(=O)N[C@@H](Cc1c[nH]c2ccccc12)C(=O)N[C@@H](Cc1c[nH]c2ccccc12)C(=O)N[C@@H](CCCN=C(N)N)C(=O)N[C@@H](CCCN=C(N)N)C(=O)N[C@@H](C)C(N)=O [ARRWWWRRA]
MIC [1]: 128 µM (≈ 172 µg/mL) | MIC [2]: ≥ 128 µM | MIC [3]: ≥ 32 µM | MIC [4]: 16 µM (≈ 21.5 µg/mL) | MIC [5]: > 128 µM | MIC [6]: 128 µM (≈ 172 µg/mL) | MIC [7]: ≥ 128 µM | MIC [8]: 32 µM (≈ 43 µg/mL) | MIC [9]: ≥ 128 µM | MIC [10]: ≥ 64 µM | MIC [11]: 8 µM (≈ 10.7 µg/mL) | MIC [12]: ≥ 64 µM | MIC [13]: 8 µM (≈ 10.7 µg/mL) | MIC [14]: 16 µM (≈ 21.5 µg/mL) | MIC [15]: 128 µM (≈ 172 µg/mL)

Compound: CC[C@H](C)[C@H](NC(=O)[C@H](CCCCN)NC(=O)[C@H](CCCN=C(N)N)NC(=O)[C@H](CCCN=C(N)N)NC(=O)[C@@H]1CCCN1C(=O)[C@H](CC(C)C)NC(=O)[C@H](CC(C)C)NC(=O)[C@@H](NC(=O)[C@H](CCCN=C(N)N)NC(=O)[C@H](CCSC)NC(=O)[C@H](CCCN=C(N)N)NC(=O)[C@H](CC(C)C)NC(=O)[C@H](Cc1ccccc1)NC(=O)[C@H](CO)NC(=O)[C@H](CCCCN)NC(=O)[C@H](C)NC(=O)[C@H](CC(C)C)NC(=O)[C@H](CCCN=C(N)N)NC(=O)CNC(=O)[C@H](Cc1ccccc1)NC(=O)[C@H](CCCN=C(N)N)NC(=O)[C@@H](N)CCCCN)[C@@H](C)CC)C(=O)N[C@@H](CC(C)C)C(=O)N[C@@H](CC(C)C)C(=O)N[C@@H](C)C(=O)N[C@@H](CO)C(=O)O [KRFGRLAKSFLRMRILLPRRKILLAS]
MIC [16]: 3.98 µM and 1.91 µM | MIC [6]: 3.98 µM (≈ 12.5 µg/mL) | MIC [17]: > 31.8 µM | MIC [18]: 3.98 µM (≈ 12.5 µg/mL) | MIC [19]: 0.9 µM (≈ 2.83 µg/mL) | MIC [20]: 31.8 µM (≈ 100 µg/mL) | MIC [21]: 0.955 µM (≈ 3 µg/mL) | MIC [22]: 1.1 µM (≈ 3.46 µg/mL) | MIC [23]: 1.27 µM (≈ 4 µg/mL) | MIC [8]: > 10.2 µM | MIC [24]: 1.91 µM and 0.9 µM | MIC [11]: 1.91 µM (≈ 6 µg/mL) | MIC [25]: 7.96 µM (≈ 25 µg/mL) | MIC [26]: 0.78 µM (≈ 2.45 µg/mL) | MIC [27]: 1.91 µM (≈ 6 µg/mL) | MIC [28]: 7.96 µM (≈ 25 µg/mL) | MIC [29]: 1.27 µM (≈ 4 µg/mL) | MIC [30]: 1.91 µM and 0.637 µM | MIC [31]: 31.8 µM (≈ 100 µg/mL) | MIC [32]: 3.98 µM and 1.91 µM | MIC [33]: 3.98 µM (≈ 12.5 µg/mL) | MIC [34]: 1.91 µM and 3.98 µM | MIC [35]: 0.9 µM (≈ 2.83 µg/mL)
